# Data reported in article PMC8583042, “New Hybrid Compounds Combining Fragments of Usnic Acid and Thioether Are Inhibitors of Human Enzymes TDP1, TDP2 and PARP1” (International Journal of Molecular Sciences, 2021).
# Legend:
# [1] = Colorimetric cytotoxicity test, HEK293A PARP1-/-; assay type: cell-based; details: human, PARP1-/- HEK293A cells; PARP1-/- cell line, intrinsic cytotoxicity (Figure 6); read-out: CC50
# Text: (§1) In our previous works, we checked the cytotoxic effect of Tpc and the TDP1 inhibitors—monoterpene 3-carene-derived compounds [48, 49] and UA combined with monoterpenoids, measured separately and jointly with Tpc—using a panel of HEK293FT and HEK293A Tdp1 knockout isogenic clones. […] The data on the HEK293FT mutants were of low reproducibility, which is why we decided to change the basic cell line to HEK293A [49]. In this work, we created new PARP1-/- HEK293A cells using the CRISPR–Cas9 approach (Figure S27). […] We checked the intrinsic cytotoxicity of the leader compound (10a) on the HEK293 wild type and TDP1-/- and PARP1-/- cell lines using a colorimetric test (Figure 6). […] There was no difference between the WT and mutant cells.
# (§2) Cytotoxicity of the compounds was examined against human cell lines HEK293A (human embryonic kidney)—WT, TDP1 deficient (Tdp1-/-), PARP1 deficient (PARP1-/-), and HeLa (cervical cancer) using an EZ4U colorimetric test (Biomedica, Vienna, Austria). […] After the formation of a 30–50% monolayer, the tested compounds were added to the medium, and the cell culture was monitored for 3 days. […] The compound concentration that caused 50% cell growth inhibition was determined using OriginPro 8.6.0 software (OriginLab, Northampton, MA, USA). […]
# [2] = Colorimetric cytotoxicity test, HEK293A Tdp1-/-; assay type: cell-based; details: human, HEK293A Tdp1-/- cells; TDP1-/- cell line, intrinsic cytotoxicity (Figure 6)
# Text: as §1, §2
# [3] = test system: HEK293 wild type and TDP1-/- and PARP1-/- cell lines; test: Joint action of 10a and Tpc on HEK293 wild type, TDP1-/- and PARP1-/- cells; assay type: cell-based, human; details: data not shown
# Text: as §1, §2
compound,measurement,setting,value
"CC(=O)C1=C(O)C=C2Oc3c(C(=O)C[S+]([O-])c4nc5ccccc5s4)c(O)c(C)c(O)c3[C@@]2(C)C1=O (stereo partly drawn) [10a, (2R)-4-acetyl-10-[2-(1,3-benzothiazole-2-sulfinyl)acetyl]-5,11,13-trihydroxy-2,12-dimethyl-8-oxatricyclo[7.4.0.0^2,7]trideca-1(13),4,6,9,11-pentaen-3-one]",CC50 at 3 days,[1],15 to 20 µM
same,CC50 at 3 days,[2],15 to 20 µM
same,Effect of the joint presence of 10a and Tpc (in words),[3],did not observe any effect
